Values after ≈ are worked out from the molar mass of the structure shown.
How the values were obtained:
Assay in all cases: MIC, broth microdilution in Meuller-Hinton broth (NCCLS)
559 E. faecalis (GSE) = assay type: cell-based, Enterococcus faecalis; settings: glycopeptide-sensitive clinical isolate
Summary of the method: (§1)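 Clinical strains, sensitive or resistant to natural glycopeptides, served as test organisms; the end point was the minimal inhibitory concentration, given in μg/ml.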

560 E. faecalis (GRE) = assay type: cell-based, Enterococcus faecalis; settings: glycopeptide-resistant clinical isolate
Summary of the method: as §1

602 S. haemolyticus = assay type: cell-based, Staphylococus haemolyticus; settings: clinical isolate
Summary of the method: as §1

568 E. faecium (GSE) = assay type: cell-based; settings: glycopeptide-sensitive clinical isolate
Summary of the method: as §1

569 E. faecium (GRE) = assay type: cell-based; settings: glycopeptide-resistant clinical isolate
Summary of the method: as §1

533 S. epidermidis = assay type: cell-based, Staphylococus epidermidis; settings: clinical isolate
Summary of the method: as §1

3797 S. aureus (GISA) = assay type: cell-based, Staphylococus aureus; settings: glycopeptides-intermediate clinical isolate
Summary of the method: as §1

3798 S. aureus (GISA) = assay type: cell-based, Staphylococus aureus; settings: glycopeptides-intermediate clinical isolate
Summary of the method: as §1

| SMILES | MIC 559 E. faecalis (GSE) (559 E. faecalis (GSE)) | MIC 560 E. faecalis (GRE) (560 E. faecalis (GRE)) | MIC 602 S. haemolyticus (602 S. haemolyticus) | MIC 568 E. faecium (GSE) (568 E. faecium (GSE)) | MIC 569 E. faecium (GRE) (569 E. faecium (GRE)) | MIC 533 S. epidermidis (533 S. epidermidis) | MIC 3797 S. aureus (GISA) (3797 S. aureus (GISA)) | MIC 3798 S. aureus (GISA) (3798 S. aureus (GISA)) |
| --- | --- | --- | --- | --- | --- | --- | --- | --- |
| CNC(CC(C)C)C(=O)NC1C(=O)NC(CC(N)=O)C(=O)NC2C(=O)NC3C(=O)NC(C(=O)NC(C(=O)O)c4cc(O)cc(O)c4-c4cc3ccc4O)C(OC3CC(C)(N)C(O)C(C)O3)c3ccc(cc3)Oc3cc2cc(c3OC2OC(CO)C(O)C(O)C2OC2CC(C)(NC(=O)CNCc3ccc(OCc4ccccc4)cc3)C(O)C(C)O2)Oc2ccc(cc2Cl)C1O (centres unmarked) [Compound 223] | 2 µg/mL (≈ 1.1 µM) | 64 µg/mL (≈ 35.3 µM) | 4 µg/mL (≈ 2.21 µM) | 2 µg/mL (≈ 1.1 µM) | 16 µg/mL (≈ 8.83 µM) | 2 µg/mL (≈ 1.1 µM) | 8 µg/mL (≈ 4.42 µM) | 8 µg/mL (≈ 4.42 µM) |
| CCCCCCCCCC(=O)NCC(=O)NC1(C)CC(OC2C(Oc3c4cc5cc3Oc3ccc(cc3Cl)C(O)C(NC(=O)C(CC(C)C)NC)C(=O)NC(CC(N)=O)C(=O)NC5C(=O)NC3C(=O)NC(C(=O)NC(C(=O)O)c5cc(O)cc(O)c5-c5cc3ccc5O)C(OC3CC(C)(N)C(O)C(C)O3)c3ccc(cc3)O4)OC(CO)C(O)C2O)OC(C)C1O (centres unmarked) [Compound 186] | 2 µg/mL (≈ 1.13 µM) | >64 µg/mL | 2 µg/mL (≈ 1.13 µM) | 1 µg/mL (≈ 0.565 µM) | >64 µg/mL | 2 µg/mL (≈ 1.13 µM) | 16 µg/mL (≈ 9.04 µM) | 16 µg/mL (≈ 9.04 µM) |
| CCCCCCCCOc1ccc(CNCC(=O)NC2(C)CC(OC3C(Oc4c5cc6cc4Oc4ccc(cc4Cl)C(O)C4NC(=O)C(NC(=O)C6NC(=O)C(CC(N)=O)NC(=O)C(NC(=O)C(CC(C)C)NC)C(O)c6ccc(c(Cl)c6)O5)c5ccc(O)c(c5)-c5c(O)cc(O)cc5C(C(=O)NCc5ccc(F)cc5)NC4=O)OC(CO)C(O)C3O)OC(C)C2O)cc1 (centres unmarked) [Compound 277] | 4 µg/mL (≈ 2.18 µM) | 8 µg/mL (≈ 4.37 µM) | 8 µg/mL (≈ 4.37 µM) | 4 µg/mL (≈ 2.18 µM) | 8 µg/mL (≈ 4.37 µM) | 4 µg/mL (≈ 2.18 µM) | 8 µg/mL (≈ 4.37 µM) | 4 µg/mL (≈ 2.18 µM) |
| CNC(CC(C)C)C(=O)NC1C(=O)NC(CC(N)=O)C(=O)NC2C(=O)NC3C(=O)NC(C(=O)NC(C(=O)NC(C)C45CC6CC(CC(C6)C4)C5)c4cc(O)cc(O)c4-c4cc3ccc4O)C(OC3CC(C)(N)C(O)C(C)O3)c3ccc(cc3)Oc3cc2cc(c3OC2OC(CO)C(O)C(O)C2OC2CC(C)(N)C(O)C(C)O2)Oc2ccc(cc2Cl)C1O (centres unmarked) [Compound 262] | 1 µg/mL (≈ 0.582 µM) | 16 µg/mL (≈ 9.31 µM) | 1 µg/mL (≈ 0.582 µM) | 0.5 µg/mL (≈ 0.291 µM) | 16 µg/mL (≈ 9.31 µM) | 0.5 µg/mL (≈ 0.291 µM) | 4 µg/mL (≈ 2.33 µM) | 2 µg/mL (≈ 1.16 µM) |
